Values of other authors as cited in patent publication US7767860B2, “Substituted amino alcohols” (Auspex Pharmaceuticals, Inc, priority 2007, dated 2010).

Tested on: Mycobacterium tuberculosis
Settings: fold more potent; Hausler et al 2001; Stauffer et al 2002

SMILES: CC[C@@H](CO)NCCN[C@@H](CC)CO [Ethambutol, 2-[2-(1-hydroxybutan-2-ylamino)ethylamino]butan-1-ol]
- potency of the (S,S)-enantiomer relative to the (R,R)-enantiomer and the meso-isomer: 200-500 times
